Measurements taken from patent US20260015364A1, “PIPERAZINE BRIDGE-SUBSTITUTED HETEROCYCLIC PYRIMIDINE COMPOUND” (MEDSHINE DISCOVERY INC., priority 2022, published 2026).

Tested on: p-ERK in GP2D cells
Test: p-ERK inhibition test of GP2D cells (HTRF)
Assay type: cell-based
Settings: Homo sapiens, 1 hour compound incubation
Procedure: • 1). GP2D cells are seeded in a transparent 96-well cell culture plate, with 80 μL of cell suspension per well and 8000 cells per well, and the cell plate is incubated in a carbon dioxide incubator at 37° C. overnight; • 2). 2 μL of the compound is added to 78 μL of cell culture medium; after mixing well, 20 μL of the compound solution is taken and added to the corresponding cell plate wells, and the cell plate is put back into the carbon dioxide incubator to incubate for another 1 hour; • 3). After the incubation is completed, the cell supernatant is discarded, and 50 μL of 1× cell lysate is added to each well, and incubated at room temperature for 30 minutes with shaking; • 4). Phospho-ERK1/2 Eu Cryptate antibody and Phospho-ERK1/2 d2 antibody are 20-fold diluted using detection buffer; • 5). […] After the incubation is completed, a multimode microplate reader is used to read HTRF excitation: 320 nm, emission: 615 nm, 665 nm; • 7). The IC50 of the test compound is calculated.
• 1). […] After the incubation was completed, a multimode microplate reader was used to read HTRF excitation: 320 nm, emission: 615 nm, 665 nm; • 7) The IC50 of the test compound was calculated.

## Nc1cc(F)c(C(F)(F)F)c(-c2ncc3c(N4CC5C=CC(C4)N5)nc(OC[C@@]45CCCN4C[C@H](F)C5)nc3c2F)c1 [Compound 1]
  IC50: 4.75 nM
